Experimental data: ChEMBL document CHEMBL5550189, “Discovery of GS-7682, a Novel 4'-Cyano-Modified C-Nucleoside Prodrug with Broad Activity against Pneumo- and Picornaviruses and Efficacy in RSV-Infected African Green Monkeys” (J Med Chem, 2024)
Activity calls are given as the source filed them. The calls are words filed in the database; no cut-off is given here.

Experiments:
[1] = Prodrug conversion in D-HBE-COPD cells assessed as ((2R,3S,4R,5S)-5-(4-aminopyrrolo[2,1-f][1,2,4]triazin-7-yl)-2-cyano-3,4-dihydroxytetrahydrofuran-2-yl)methyl tetrahydrogen triphosphate formation measured per million cells at 1 uM measured after 48 hrs by LC-MS/MS analysis; format: ADME, cell-based; settings: human
[2] = Prodrug conversion in Normal human bronchial epithelial cells assessed as ((2R,3S,4R,5S)-5-(4-aminopyrrolo[2,1-f][1,2,4]triazin-7-yl)-2-cyano-3,4-dihydroxytetrahydrofuran-2-yl)methyl tetrahydrogen triphosphate formation measured per million cells at 10 uM incubated for 2 hrs by LC-MS/MS analysis; format: ADME, cell-based; settings: epithelial cell
[3] = tested on: Respiratory syncytial virus; test: Antiviral activity against RSV infected in African green monkey assessed as log10 reduction in viral load in BAL at lung-deposited dose of 1.6 to 7.6 mg/kg, IT qd measured after 5 days by RT-qPCR analysis; format: functional; settings: dose 1.6-7.6 mg/kg, time 5 day
[4] = tested on: Respiratory syncytial virus; test: Antiviral activity against Fluc-fused RSV A2 infected in D-HBE-COPD cells incubated for 3 days by ONE Glo luciferase assay; format: functional, organism-based; settings: human respiratory syncytial virus, 72 h
[5] = Drug metabolism in Cynomolgous monkey assessed as AUC (0 to 24 hrs) of (2R,3S,4R,5S)-5-(4-aminopyrrolo[2,1-f][1,2,4]triazin-7-yl)-3,4-dihydroxy-2-(hydroxymethyl)tetrahydrofuran-2-carbonitrile metabolite at lung-deposited dose of 4 mg/kg, IT measured after 24 hrs by LC-MS/MS analysis; format: ADME, organism-based, Macaca fascicularis; settings: cynomolgus monkey, in vivo, other
[6] = tested on: Respiratory syncytial virus; test: Antiviral activity against RSV A2 infected in Normal human bronchial epithelial cells assessed as inhibition of intracellular virus replication; format: functional, organism-based; settings: A2, Epithelial cell
[7] = tested on: Respiratory syncytial virus; test: Antiviral activity against RSV infected in African green monkey assessed as reduction in viral load in BAL at lung-deposited dose of 1.6 to 7.6 mg/kg, IT qd for 6 days measured on day 11 by RT-qPCR analysis; format: functional, organism-based; settings: dose 1.6-7.6 mg/kg, time 11.0 day
[8] = Half life in Cynomolgous monkey at 5 mg/kg, iv measured after 30 mins by LC-MS/MS analysis; format: ADME, organism-based, Macaca fascicularis; settings: cynomolgus monkey, in vivo
[9] = tested on: Respiratory syncytial virus; test: (§1) Antiviral activity against RSV A2 infected in human airway epithelium transwell culture assessed as decrease in viral RNA level by measuring log10 reduction in median viral load at 0.25 uM pretreated at apical side for 3 hrs followed by compound washout and subsequent viral infection at apical side for 3 hrs followed by removal of virus and recurrent addition of compound on day 1 and 2 at basolateral side measured on day 3 by RT-qPCR analysis; format: functional; settings: time 75 hrs
[10] = Prodrug conversion in Normal human bronchial epithelial cells assessed as ((2R,3S,4R,5S)-5-(4-aminopyrrolo[2,1-f][1,2,4]triazin-7-yl)-2-cyano-3,4-dihydroxytetrahydrofuran-2-yl)methyl tetrahydrogen triphosphate formation measured per million cells at 1 uM measured after 48 hrs by LC-MS/MS analysis; format: ADME, cell-based; settings: epithelial cell
[11] = tested on: Respiratory syncytial virus; test: Antiviral activity against Fluc-fused RSV A2 infected in D-HBE-As cells incubated for 3 days by ONE Glo luciferase assay; format: functional, organism-based; settings: human respiratory syncytial virus, 72 h
[12] = tested on: Respiratory syncytial virus; test: as §1, with “0” for “1 and 2”, “apical” for “basolateral”; format: functional; settings: time 75 hrs
[13] = tested on: Respiratory syncytial virus; test: Antiviral activity against RSV A2 infected in human HEp-2 cells incubated for 4 days by Cell Titer Glo assay; format: functional, organism-based; settings: A2, HEp-2, 96 h
enterovirus D68 = test: Anti-viral activity against EV-D68 (18952) infected in human RD cells by MTS assay; format: functional, organism-based; settings: Enterovirus D, 18952, RD
[14] = Drug metabolism in African green monkey assessed as AUC (0 to 24 hrs) of (2R,3S,4R,5S)-5-(4-aminopyrrolo[2,1-f][1,2,4]triazin-7-yl)-3,4-dihydroxy-2-(hydroxymethyl)tetrahydrofuran-2-carbonitrile metabolite at lung-deposited dose of 5.9 mg/kg, IT measured after 24 hrs by LC-MS/MS analysis; format: ADME, organism-based; settings: chlorocebus aethiops, in vivo, other
[15] = tested on: Respiratory syncytial virus; test: Antiviral activity against RSV A2 infected in Normal human bronchial epithelial cells incubated for 3 days by ONE-Glo luciferase assay; format: functional, organism-based; settings: A2, Epithelial cell, 72 h
[16] = Selectivity index, ratio of CC50 for human HEp-2 cells to EC50 for RSV A2 infected in human HEp-2 cells; format: toxicity, cell-based; settings: read-out: Ratio CC50/EC50
[17] = Drug metabolism in African green monkey assessed as half life of (2R,3S,4R,5S)-5-(4-aminopyrrolo[2,1-f][1,2,4]triazin-7-yl)-3,4-dihydroxy-2-(hydroxymethyl)tetrahydrofuran-2-carbonitrile metabolite at lung-deposited dose of 5.9 mg/kg, IT measured after 24 hrs by LC-MS/MS analysis; format: ADME, organism-based; settings: chlorocebus aethiops, in vivo, other
[18] = Drug metabolism in Cynomolgous monkey assessed as Cmax of (2R,3S,4R,5S)-5-(4-aminopyrrolo[2,1-f][1,2,4]triazin-7-yl)-3,4-dihydroxy-2-(hydroxymethyl)tetrahydrofuran-2-carbonitrile metabolite at lung-deposited dose of 4 mg/kg, IT measured after 24 hrs by LC-MS/MS analysis; format: ADME, organism-based, Macaca fascicularis; settings: cynomolgus monkey, in vivo, other
[19] = Cytotoxicity against human A549 cells expressing hACE2 incubated for 28 hrs by Cell Titer Glo assay; format: toxicity, cell-based
[20] = Prodrug conversion in D-HBE-As cells assessed as ((2R,3S,4R,5S)-5-(4-aminopyrrolo[2,1-f][1,2,4]triazin-7-yl)-2-cyano-3,4-dihydroxytetrahydrofuran-2-yl)methyl tetrahydrogen triphosphate formation measured per million cells at 1 uM measured after 48 hrs by LC-MS/MS analysis; format: ADME, cell-based; settings: human
[21] = Drug metabolism in Cynomolgous monkey assessed as Cmax of (2R,3S,4R,5S)-5-(4-aminopyrrolo[2,1-f][1,2,4]triazin-7-yl)-3,4-dihydroxy-2-(hydroxymethyl)tetrahydrofuran-2-carbonitrile metabolite at 5 mg/kg, iv measured after 30 mins by LC-MS/MS analysis; format: ADME, organism-based, Macaca fascicularis; settings: cynomolgus monkey, in vivo, 0.5 h
[22] = Cytotoxicity against Normal human bronchial epithelial cells; format: toxicity, cell-based, Epithelial cell
[23] = Drug metabolism in Cynomolgous monkey assessed as half life of (2R,3S,4R,5S)-5-(4-aminopyrrolo[2,1-f][1,2,4]triazin-7-yl)-3,4-dihydroxy-2-(hydroxymethyl)tetrahydrofuran-2-carbonitrile metabolite at 5 mg/kg, iv measured after 30 mins by LC-MS/MS analysis; format: ADME, organism-based, Macaca fascicularis; settings: cynomolgus monkey, in vivo, 0.5 h
[24] = Cytotoxicity against rhesus monkey LLC-MK2 cells incubated for 5 days by MTS assay; format: toxicity, cell-based, Macaca mulatta; settings: time 5 day
[25] = Selectivity index, ratio of CC50 for Normal human bronchial epithelial cells to EC50 for RSV A2 infected in Normal human bronchial epithelial cells; format: toxicity; settings: read-out: Ratio CC50/EC50
[26] = AUC (0 to 24 hrs) in Cynomolgous monkey at lung-deposited dose of 4 mg/kg, IT measured after 24 hrs by LC-MS/MS analysis; format: ADME, organism-based, Macaca fascicularis; settings: cynomolgus monkey, in vivo
[27] = AUC (0 to 24 hrs) in Cynomolgous monkey at 5 mg/kg, iv measured after 30 mins by LC-MS/MS analysis; format: ADME, organism-based, Macaca fascicularis; settings: cynomolgus monkey, in vivo

In the case of `COC(=O)[C@H](C)N[P@](=O)(OC[C@@]1(C#N)O[C@@H](c2ccc3c(N)ncnn23)[C@H](OC(=O)C(C)C)[C@@H]1OC(=O)C(C)C)Oc1ccccc1`, the Drug metabolism [1] is reported as 85 pM, the Drug metabolism [2] is reported as 916 pM and the Activity [3] is reported as 3.6 log10/ml. For the same compound, the EC50 [4] was < 7 nM, the AUC [5] was 2.55 µM·h and the IC50 [6] was < 38 nM. The Activity [7] was “Active”, the half-life [8] was 0.34 h and the Activity [9] was 2.5 log10/ml. The Drug metabolism [10] was 88.8 pM, the EC50 [11] was 6 nM and the Activity [12] was 1.9 log10/ml. The EC50 [13] was 46 nM, the EC50 (enterovirus D68) was 90 nM and the AUC [14] was 3.39 µM·h. It also gave an EC50 [15] of 15 nM, a selectivity ratio [16] of 500 and a t1/2 [17] of 14.7 h. It also gave a Cmax [18] of 140 nM, a CC50 at 28 h [19] of 21100 nM and a Drug metabolism [20] of 113.3 pM. It also gave a Cmax [21] of 961 nM, a CC50 [22] of 8300 nM and a t1/2 [23] of 8.71 h. For the same compound, the CC50 at 120 h [24] was > 2000 nM, the selectivity ratio [25] was 640 and the AUC(0-t) at 24 h [26] was 1.86 µM·h. It also gave an AUC(0-t) at 0.5 h [27] of 0.962 µM·h.
